In US20230097085A1, “[6R]-MTHF IN 5-FU BASED CHEMOTHERAPY OF RIGHT-SIDED COLORECTAL CANCER” (Isofol Medical AB, priority 2021, published 2023):

System: solid colorectal cancer tumors (metastatic colorectal cancer)
Test: Clinical study ISO-CC-005 (safety extension cohorts #18/#19 and Follow-up study): tumour response by CT/MRI per RECIST 1.1
Assay type: in vivo, human
Description: As used herein, the term ORR shall refer to the Objective Response Rate, ie. the proportion of patients with reduction in tumor burden of a predefined amount. […] (Note: the appearance of one or more new lesions is also considered progression). […] 2019. The completion of the study was announced in January 2020. In total, 105 patients were included in the study. Applicant completed the dose definition part of ISO-CC-005 in March 2018, which evaluated the safety and efficacy of arfolitixorin in patients with mCRC. Shortly after, applicant started two additional treatment groups in 2018 to generate more safety and efficacy data, i.e. the safety extension Cohort #18 (Treatment Arm #4) and Cohort #19 (Treatment Arm #6). The aim was to evaluate as many patients as possible from the additional treatment groups after a treatment period of 16 weeks+. On 30 Sep. 2020, applicant announced response assessment data from the two safety extension cohorts (31 patients) treated for 16 weeks or longer (press release: 55% Overall Response Rate on the safety extension cohorts of the ISO-CC-005 Phase Ulla study BioSpace). […] Out of the 31 patients, 17 were treated with an ARFOX regimen. Clinical Study ISO-CC-005 was an exploratory, […] multiple-centre study to be carried out in Stadium IV CRC patients. […] In the Main Study, patients received study treatment with arfolitixorin during eight (8) weeks. Patients eligible for the Follow-up study could participate until reaching progress, but no longer than 18 months. Enrolled patients, stadium IV CRC patients, were aware of the relatively poor prognosis of their disease. Those patients who could continue benefitting from treatment with a […] effective therapy, were offered the possibility to continue study treatment by participating in the Follow-up Study. In the Follow-up Study patients continued to receive the same treatment as assigned during the Main Study period. However, the Investigator could complete the allocated treatment with other therapeutic agents of choice in alignment with standard of care in order to adapt treatment to the patient's specific needs and, in this way, provide optimal care. Response was measured in short- and long-term assessments. During the Main Study phase, only short-term assessments of tumour response were explored by means of objective response rate (ORR) and early tumour shrinkage (ETS). These assessments were to be used as indicators of prognostic factor in ascertaining earlier non responders and to explore the correlation to other factors such as folate levels, tumour biomarkers, or expression levels of certain key genes. […]

Nc1nc2c(c(=O)[nH]1)N1CN(c3ccc(C(=O)N[C@@H](CCC(=O)O)C(=O)O)cc3)C[C@H]1CN2 [arfolitixorin, [6R]-5,10-methylenetetrahydrofolate]
best overall response rate (ORR) (31 patients of the two safety extension cohorts treated 16 weeks or longer, 120 mg/m2 arfolitixorin + 5-FU with irinotecan or oxaliplatin (ARFIRI/ARFOX)): 55% | progression of solid tumors between 8 and 16 weeks after initiating treatment ([6R]-MTHF and 5-FU, treatment period of at least 8 weeks, Phase I/IIa study ISO-CC-005): No statistically significant progression | best ORR in patients diagnosed with RCRC (right-sided CRC patients (13) of the 31-patient group, after 16 weeks and beyond, 120 mg/m2 arfolitixorin + 5-FU + irinotecan or oxaliplatin): 46% | best ORRs (objective response rates) that can be achieved (right-sided CRC patients incl. BRAF/KRAS mutation-positive, protocol over at least 16 weeks with multiple rapid boluses): > 50%
